PubChem BioAssay AID200 (DTP/NCI, 2004)
“And” between values parts separate entries of the source, which are not always exact repeats. Equal entries are not always repeated. Toxic doses and inconclusive results are not listed. Where a SMILES comes first, the peptide text is derived from it.

Tested on: B6C3F1 mice, B16 melanoma ip, median survival T/C
Assay: NCI In Vivo Anticancer Drug Screen. Data for tumor model B16 Melanoma (intraperitoneal) in B6C3F1 mice
Conditions: endpoint: median survival time, higher = longer survival
Procedure, shortened: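 Readout: survival or tumor size in treated mice relative to vehicle controls (T/C). Model uses transplantable tumors grown in mice.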

[1] = dose: 25.0 mg/kg/injection, schedule: Q01DX009 (ip), vehicle: Klucel (hydroxypropylcellulose) (HPC)
[2] = dose: 12.5 mg/kg/injection, schedule: Q01DX009 (ip), vehicle: saline with Tween-80
[3] = dose: 25.0 mg/kg/injection, schedule: Q01DX009 (ip), vehicle: saline with Tween-80
[4] = dose: 50.0 mg/kg/injection, schedule: Q01DX009 (ip), vehicle: saline with Tween-80
[5] = dose: 100.0 mg/kg/injection, schedule: Q01DX009 (ip), vehicle: saline with Tween-80
[6] = dose: 200.0 mg/kg/injection, schedule: Q01DX009 (ip), vehicle: saline with Tween-80
[7] = dose: 6.0 mg/kg/injection, schedule: Q01DX009 (ip), vehicle: water
[8] = dose: 6.25 mg/kg/injection, schedule: Q01DX009 (ip), vehicle: saline with Tween-80
[9] = dose: 12.5 mg/kg/injection, schedule: Q01DX009 (ip), vehicle: saline
[10] = dose: 25.0 mg/kg/injection, schedule: Q01DX009 (ip), vehicle: saline
[11] = dose: 400.0 mg/kg/injection, schedule: Q01DX009 (ip), vehicle: saline

## CC(C)[C@](O)(C(=O)OCC1=CCN2CC[C@@H](O)[C@@H]12)[C@H](C)O
dose: 25.0 mg/kg/injection, schedule: Q01DX009 (ip), vehicle: water
  T/C: 107 % of control
dose: 50.0 mg/kg/injection, schedule: Q01DX009 (ip), vehicle: water
  T/C: 111 % of control and 116 % of control
dose: 100.0 mg/kg/injection, schedule: Q01DX009 (ip), vehicle: water
  T/C: 111 % of control
dose: 200.0 mg/kg/injection, schedule: Q01DX009 (ip), vehicle: water
  T/C: 117 % of control

## O=C([O][Bi]([c]1ccccc1)[c]1ccccc1)c1ccccc1
dose: 6.25 mg/kg/injection, schedule: Q01DX009 (ip), vehicle: Klucel (hydroxypropylcellulose) (HPC)
  T/C: 101 % of control
dose: 12.5 mg/kg/injection, schedule: Q01DX009 (ip), vehicle: Klucel (hydroxypropylcellulose) (HPC)
  T/C: 96 % of control
[1]
  T/C: 88 % of control

## CN1N=C(N)c2cn(C3OC(COP(=O)(O)O)C(O)C3O)c3ncnc1c23 (stereo unspecified)
dose: 12.0 mg/kg/injection, schedule: Q01DX009 (ip), vehicle: Klucel (hydroxypropylcellulose) (HPC)
  T/C: 93 % of control
[1]
  T/C: 93 % of control
dose: 50.0 mg/kg/injection, schedule: Q01DX009 (ip), vehicle: Klucel (hydroxypropylcellulose) (HPC)
  T/C: 96 % of control
dose: 100.0 mg/kg/injection, schedule: Q01DX009 (ip), vehicle: Klucel (hydroxypropylcellulose) (HPC)
  T/C: 91 % of control

## O=C(O)/C=C/C(=O)N1Cc2cc3ccccc3nc2C1
[2]
  T/C: 110 % of control
[3]
  T/C: 99 % of control
[4]
  T/C: 98 % of control
[5]
  T/C: 94 % of control
[6]
  T/C: 95 % of control

## N#CN=[N+]([O-])c1ccc(C(=O)O)cc1
dose: 1.87 mg/kg/injection, schedule: Q01DX009 (ip), vehicle: Klucel (hydroxypropylcellulose) (HPC)
  T/C: 99 % of control and 101 % of control
dose: 3.75 mg/kg/injection, schedule: Q01DX009 (ip), vehicle: Klucel (hydroxypropylcellulose) (HPC)
  T/C: 96 % of control and 105 % of control
dose: 7.5 mg/kg/injection, schedule: Q01DX009 (ip), vehicle: Klucel (hydroxypropylcellulose) (HPC)
  T/C: 95 % of control and 102 % of control
dose: 15.0 mg/kg/injection, schedule: Q01DX009 (ip), vehicle: Klucel (hydroxypropylcellulose) (HPC)
  T/C: 89 % of control and 91 % of control
dose: 30.0 mg/kg/injection, schedule: Q01DX009 (ip), vehicle: Klucel (hydroxypropylcellulose) (HPC)
  T/C: 90 % of control and 97 % of control

## CC(C)CC(NC(=O)C(O)C(N)Cc1ccccc1)C(=O)O (stereo unspecified)
dose: 10.0 micrograms/kg/injection, schedule: Q01DX005 (ip), vehicle: saline
  T/C: 99 % of control
dose: 10.0 micrograms/kg/injection, schedule: Q01DX005 (oral), vehicle: saline
  T/C: 100 % of control
dose: 10.0 micrograms/mouse/injection, schedule: Q01DX006 (ip), vehicle: saline
  T/C: 101 % of control
dose: 20.0 micrograms/mouse/injection, schedule: Q01DX006 (oral), vehicle: saline
  T/C: 95 % of control
dose: 100.0 micrograms/kg/injection, schedule: Q01DX005 (ip), vehicle: saline
  T/C: 96 % of control
dose: 100.0 micrograms/kg/injection, schedule: Q01DX005 (oral), vehicle: saline
  T/C: 98 % of control
dose: 100.0 micrograms/mouse/injection, schedule: Q01DX006 (ip), vehicle: saline
  T/C: 108 % of control
dose: 200.0 micrograms/mouse/injection, schedule: Q01DX006 (oral), vehicle: saline
  T/C: 102 % of control

## CCCCCCCC(=O)N/N=C(\CO)[C@]1(O)Cc2c(O)c3c(c(O)c2[C@@H](OC2CC(N)C(O)C(C)O2)C1)C(=O)c1c(OC)cccc1C3=O (stereo partly specified)
dose: 1.5 mg/kg/injection, schedule: Q01DX009 (ip), vehicle: saline
  T/C: 154 % of control
dose: 1.5 mg/kg/injection, schedule: Q01DX009 (ip), vehicle: water
  T/C: 171 % of control
dose: 3.0 mg/kg/injection, schedule: Q01DX009 (ip), vehicle: saline
  T/C: 196 % of control
dose: 3.0 mg/kg/injection, schedule: Q01DX009 (ip), vehicle: water
  T/C: 199 % of control
dose: 6.0 mg/kg/injection, schedule: Q01DX009 (ip), vehicle: saline
  T/C: 216 % of control
[7]
  T/C: 320 % of control
dose: 12.0 mg/kg/injection, schedule: Q01DX009 (ip), vehicle: saline
  T/C: 208 % of control
dose: 12.0 mg/kg/injection, schedule: Q01DX009 (ip), vehicle: water
  T/C: 320 % of control
dose: 24.0 mg/kg/injection, schedule: Q01DX009 (ip), vehicle: saline
  T/C: 208 % of control

## CCCC1CCC(=C2C(=O)CCC2=O)O1 (stereo unspecified)
[3]
  T/C: 103 % of control
[4]
  T/C: 98 % of control

## CCCCCCCCCCCCSC1=C(Cl)C(=O)C(OC)=C(OC)C1=O
dose: 3.12 mg/kg/injection, schedule: Q01DX009 (ip), vehicle: saline with Tween-80
  T/C: 95 % of control and 102 % of control
[8]
  T/C: 95 % of control and 103 % of control
[2]
  T/C: 89 % of control and 94 % of control
[3]
  T/C: 90 % of control and 100 % of control
[4]
  T/C: 88 % of control and 101 % of control
[5]
  T/C: 89 % of control

## CCOC(=O)C(CC(C)C)NC(=O)C(N)Cc1ccc(N(CCCl)CCCl)cc1 (stereo unspecified)
dose: 1.25 mg/kg/injection, schedule: Q01DX009 (ip), vehicle: water
  T/C: 113 % of control
dose: 2.5 mg/kg/injection, schedule: Q01DX009 (ip), vehicle: water
  T/C: 113 % of control and 102 % of control

## S=c1c2[nH]cnc2ncn1CCSC1=NC=NC2=NC=NC21 (stereo unspecified)
[9]
  T/C: 98 % of control
[10]
  T/C: 104 % of control
dose: 50.0 mg/kg/injection, schedule: Q01DX009 (ip), vehicle: saline
  T/C: 92 % of control
[11]
  T/C: 89 % of control

## Cc1cc(N=NC(N)=S)c2ccccc2c1O
dose: 3.13 mg/kg/injection, schedule: Q01DX009 (ip), vehicle: saline with Tween-80
  T/C: 94 % of control
[8]
  T/C: 86 % of control
[2]
  T/C: 87 % of control

## C/C=C/C=C\C=C/C(O)CC(OP(=O)(O)O)C(C)(O)/C=C/C1CC=CC(=O)O1 (stereo unspecified)
dose: 0.38 mg/kg/injection, schedule: Q01DX009 (ip), vehicle: water
  T/C: 107 % of control
dose: 0.75 mg/kg/injection, schedule: Q01DX009 (ip), vehicle: water
  T/C: 117 % of control (2×) and 123 % of control
[7]
  T/C: 157 % of control and 184 % of control

## CC(C)[NH-].CC(C)[NH-].[Cl][Pt+2][Cl]
dose: 1.56 mg/kg/injection, schedule: Q01DX009 (ip), vehicle: other
  T/C: 122 % of control
dose: 3.12 mg/kg/injection, schedule: Q01DX009 (ip), vehicle: other
  T/C: 120 % of control

## NC(CCC(=O)NC(CS)C(=O)NCC(=O)O)C(=O)O (stereo unspecified)
[9]
  T/C: 94 % of control
[10]
  T/C: 113 % of control and 86 % of control and 101 % of control
[11]
  T/C: 91 % of control and 104 % of control and 107 % of control

## NC(CO)(CO)CO
dose: 200.0 mg/kg/injection, schedule: Q01DX009 (ip), vehicle: saline
  T/C: 104 % of control
dose: 200.0 mg/kg/injection, schedule: Q12HX018 (ip), vehicle: saline
  T/C: 102 % of control
[11]
  T/C: 102 % of control
dose: 400.0 mg/kg/injection, schedule: Q12HX018 (ip), vehicle: saline
  T/C: 102 % of control
dose: 800.0 mg/kg/injection, schedule: Q01DX009 (ip), vehicle: saline
  T/C: 98 % of control
dose: 800.0 mg/kg/injection, schedule: Q12HX018 (ip), vehicle: saline
  T/C: 106 % of control
dose: 1600.0 mg/kg/injection, schedule: Q01DX009 (ip), vehicle: saline
  T/C: 98 % of control
dose: 1600.0 mg/kg/injection, schedule: Q12HX018 (ip), vehicle: saline
  T/C: 101 % of control

## CN(C)N=Nc1ccnc2ccc(Br)cc12
dose: 3.13 mg/kg/injection, schedule: Q01DX009 (ip), vehicle: other
  T/C: 109 % of control
dose: 6.25 mg/kg/injection, schedule: Q01DX009 (ip), vehicle: other
  T/C: 114 % of control
dose: 12.5 mg/kg/injection, schedule: Q01DX009 (ip), vehicle: other
  T/C: 110 % of control
dose: 25.0 mg/kg/injection, schedule: Q01DX009 (ip), vehicle: other
  T/C: 114 % of control
dose: 50.0 mg/kg/injection, schedule: Q01DX009 (ip), vehicle: other
  T/C: 115 % of control

## CC(=O)NC(Cc1ccccc1)C(=O)NC(Cc1ccccc1)C(=O)O (stereo not drawn) (Ac-Phe-Phe-OH; configuration not given here)
[3]
  T/C: 107 % of control
[4]
  T/C: 100 % of control
[5]
  T/C: 102 % of control
[6]
  T/C: 104 % of control
dose: 400.0 mg/kg/injection, schedule: Q01DX009 (ip), vehicle: saline with Tween-80
  T/C: 92 % of control
